{
  "source": "patent US20240033207A1",
  "about": "“TOPICALLY ADMINISTRABLE LYSATE (LY) OF DEDIFFERENTIATED CELLS OF THE PLANT HELICHRYSUM STOECHAS FOR ELIMINATING OR REDUCING INFLAMMATION OF THE SKIN” (SOCIETE D'EXPLOITATION DE PRODUITS POUR LES INDUSTRIES …, priority 2020, published 2024)",
  "system": "normal human keratinocytes (NHEK) cocultured with dendritic cells (DC)",
  "assay": "Coculture of primary human keratinocytes with dendritic cells, PMA/A23187/PUFA stimulation, lipid mediators in supernatant by LC-MS/MS",
  "assay_type": "cell-based",
  "from_the_text": "Dendritic cells form part of the cells of the cutaneous immune system, and they are involved in the early inflammatory response. This model is targeted at mimicking the interactions which take place naturally in the skin between the keratinocytes and the cells of the immune system, and it makes it possible to evaluate the impact of active principles on the processes of resolution of inflammation. Briefly, normal human keratinocytes (NHEK) are inoculated in inserts and cultured without contact with dendritic cells (DC) inoculated in the bottom of the wells. The cells are pretreated with the composition CA or glycerol. After 20 hours of incubation, the inflammatory stimulus (mixture of phorbol 12-myristate 13-acetate (PMA) and of calcium ionophore A23187), polyunsaturated fatty acids (PUFAs, lipid precursors of inflammation mediators, eicosanoids) and the compounds (composition CA or glycerol) were again added and incubated for 1 hour. Subsequently, the culture supernatants were collected for analysis of lipid mediators. The experiments were replicated three times. […] The amounts of 5-HETE, LTB4, 12-HETE, 15-HETE and 17-HDOHE are measured by the use of an LC-MS/MS method using a UPLC system (Agilent LC1290 Infinity) coupled to an Agilent 6490 triple quadrupole mass spectrometer (Agilent Technologies) equipped with electrospray ionization operating in negative mode, and are expressed in picograms per culture well (pg/well). The values obtained were expressed as mean+/-sem [standard error of the mean=standard deviation/square root (number of values)]. For each condition, the percentages of activation were calculated as follows: % activation=[mean (condition)]/[mean (stimulated cells)]×100-100. • stimulated cells: PMA/A23187/PUFA-treated cells in the case where the condition studied is the treatment with glycerol. • stimulated cells: cells treated with PMA/A23187/PUFA+0.1% DMSO in the case where the condition studied is the treatment with the composition CA. The statistical analysis was carried out by a Student's test and a significance threshold was set at 5%, the conditions being compared in pairs. A difference between the effectiveness of two products was considered: • significant if p<0.05; • “at the limit of significance” if 0.05≤p<0.1; • and not significant if p>0.1.",
  "key": {"[1]": {"conditions": "0.01%, PMA/A23187/PUFA-stimulated coculture supernatant, proresolving mediator"}, "[2]": {"conditions": "0.01%, vs respective stimulated cells (PMA/A23187/PUFA for glycerol, + 0.1% DMSO for composition CA)"}, "[3]": {"conditions": "0.05%, PMA/A23187/PUFA-stimulated NHEK/DC coculture supernatant, proinflammatory mediator"}, "[4]": {"conditions": "0.05%, vs PMA/A23187/PUFA-treated cells"}},
  "note": "Marks after values point to notes of the source that are not given here.",
  "data": [
    {"smiles": "OCC(O)CO", "note": "[Glycerol]", "values": [
      {"measurement": "12-HETE (pg/well) Mean +/− SEM", "setting": "[1]", "value": "15 +/− 1 pg/well"},
      {"measurement": "15-HETE (pg/well) Mean +/− SEM", "setting": "[1]", "value": "273 +/− 26 pg/well"},
      {"measurement": "17-HDOHE (pg/well) Mean +/− SEM", "setting": "[1]", "value": "16654 +/− 1409 pg/well"},
      {"measurement": "12-HETE % activation", "setting": "[2]", "value": 58, "unit": "%^15"},
      {"measurement": "15-HETE % activation", "setting": "[2]", "value": 63, "unit": "%*"},
      {"measurement": "17-HDOHE % activation", "setting": "[2]", "value": "+13%"},
      {"measurement": "5-HETE (pg/well) Mean +/− SEM", "setting": "[3]", "value": "1152 +/− 201 pg/well"},
      {"measurement": "LTB4 (pg/well) Mean +/− SEM", "setting": "[3]", "value": "400 +/− 38 pg/well"},
      {"measurement": "5-HETE % activation", "setting": "[4]", "value": 144, "unit": "%*"},
      {"measurement": "LTB4 % activation", "setting": "[4]", "value": 88, "unit": "%*"}
    ]}
  ]
}
